# Where “and” joins values, the source holds several entries; their conditions need not be identical. Equal values may be shown once.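 1) Cells in 96-well plates. 2) Compound, 48 h, 5 concentrations. 3) Linear interpolation between surrounding doses. 4) Unreached endpoint = highest concentration. TGI marks complete inhibition of growth.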
# Test system: UACC-257 melanoma
# Assay: NCI tumour cell line growth inhibition, 48 h
row,SMILES,TGI [µM]
1,C=C[C@]1(C)CC(O)C2C(=C)C(=O)OC2[C@H]1C(=C)C=O (some centres undefined),4.31
2,C#CCC(O)c1ccccc1C(O)CC#C (centres undefined),> 100
3,COc1nc(=O)cc(N)n1C1OC(CO)C(O)C1O (centres undefined),> 100
4,CC(C)Cn1cnc2c(Sc3c([N+](=O)[O-])ncn3C)nc(N)nc21,> 100

# Test system: PC-3 prostate
# Assay: NCI tumour cell line growth inhibition, 48 h
row,SMILES,TGI [µM]
1,C=C[C@]1(C)CC(O)C2C(=C)C(=O)OC2[C@H]1C(=C)C=O (some centres undefined),10
2,CC(C)Cn1cnc2c(Sc3c([N+](=O)[O-])ncn3C)nc(N)nc21,> 100

# Test system: UACC-62 melanoma
# Assay: NCI tumour cell line growth inhibition, 48 h
row,SMILES,TGI [µM]
1,C=C[C@]1(C)CC(O)C2C(=C)C(=O)OC2[C@H]1C(=C)C=O (some centres undefined),3.83
2,C#CCC(O)c1ccccc1C(O)CC#C (centres undefined),> 100
3,COc1nc(=O)cc(N)n1C1OC(CO)C(O)C1O (centres undefined),> 100
4,CC(C)Cn1cnc2c(Sc3c([N+](=O)[O-])ncn3C)nc(N)nc21,> 100

# Test system: DLD-1 colon
# Assay: NCI tumour cell line growth inhibition, 48 h
row,SMILES,TGI [µM]
1,C=C[C@]1(C)CC(O)C2C(=C)C(=O)OC2[C@H]1C(=C)C=O (some centres undefined),6.73
2,C#CCC(O)c1ccccc1C(O)CC#C (centres undefined),> 100
3,COc1nc(=O)cc(N)n1C1OC(CO)C(O)C1O (centres undefined),> 100

# Test system: NCI-H23 lung
# Assay: NCI tumour cell line growth inhibition, 48 h
row,SMILES,TGI [µM]
1,COc1cc2c(cc1OC)-c1cc(OC)c(OC)cc1[C@H]1CN3CCC[C@@]3(O)C=C21,0.000267
2,C=C[C@]1(C)CC(O)C2C(=C)C(=O)OC2[C@H]1C(=C)C=O (some centres undefined),7.62
3,C#CCC(O)c1ccccc1C(O)CC#C (centres undefined),> 100
4,COc1nc(=O)cc(N)n1C1OC(CO)C(O)C1O (centres undefined),> 100
5,CC(C)Cn1cnc2c(Sc3c([N+](=O)[O-])ncn3C)nc(N)nc21,> 100

# Test system: HOP-18 NSCLC
# Assay: NCI tumour cell line growth inhibition, 48 h
row,SMILES,TGI [µM]
1,COc1cc2c(cc1OC)-c1cc(OC)c(OC)cc1[C@H]1CN3CCC[C@@]3(O)C=C21,0.000164
2,C=C[C@]1(C)CC(O)C2C(=C)C(=O)OC2[C@H]1C(=C)C=O (some centres undefined),15.1

# Test system: A498 renal
# Assay: NCI tumour cell line growth inhibition, 48 h
row,SMILES,TGI [µM]
1,C=C[C@]1(C)CC(O)C2C(=C)C(=O)OC2[C@H]1C(=C)C=O (some centres undefined),14.7
2,COc1nc(=O)cc(N)n1C1OC(CO)C(O)C1O (centres undefined),> 100
3,CC(C)Cn1cnc2c(Sc3c([N+](=O)[O-])ncn3C)nc(N)nc21,> 100

# Test system: COLO 205 colon
# Assay: NCI tumour cell line growth inhibition, 48 h
row,SMILES,TGI [µM]
1,COc1cc2c(cc1OC)-c1cc(OC)c(OC)cc1[C@H]1CN3CCC[C@@]3(O)C=C21,< 0.0001
2,C=C[C@]1(C)CC(O)C2C(=C)C(=O)OC2[C@H]1C(=C)C=O (some centres undefined),21.7
3,C#CCC(O)c1ccccc1C(O)CC#C (centres undefined),> 100
4,COc1nc(=O)cc(N)n1C1OC(CO)C(O)C1O (centres undefined),> 100
5,CC(C)Cn1cnc2c(Sc3c([N+](=O)[O-])ncn3C)nc(N)nc21,> 62.9

# Test system: CAKI-1 renal
# Assay: NCI tumour cell line growth inhibition, 48 h
row,SMILES,TGI [µM]
1,COc1cc2c(cc1OC)-c1cc(OC)c(OC)cc1[C@H]1CN3CCC[C@@]3(O)C=C21,0.000403
2,C=C[C@]1(C)CC(O)C2C(=C)C(=O)OC2[C@H]1C(=C)C=O (some centres undefined),13.5
3,C#CCC(O)c1ccccc1C(O)CC#C (centres undefined),> 100
4,COc1nc(=O)cc(N)n1C1OC(CO)C(O)C1O (centres undefined),> 100
5,CC(C)Cn1cnc2c(Sc3c([N+](=O)[O-])ncn3C)nc(N)nc21,> 100

# Test system: MCF7 breast
# Assay: NCI tumour cell line growth inhibition, 48 h
row,SMILES,TGI [µM]
1,C=C[C@]1(C)CC(O)C2C(=C)C(=O)OC2[C@H]1C(=C)C=O (some centres undefined),3.18
2,CC(C)Cn1cnc2c(Sc3c([N+](=O)[O-])ncn3C)nc(N)nc21,> 100

# Test system: M19-MEL melanoma
# Assay: NCI tumour cell line growth inhibition, 48 h
row,SMILES,TGI [µM]
1,COc1cc2c(cc1OC)-c1cc(OC)c(OC)cc1[C@H]1CN3CCC[C@@]3(O)C=C21,0.000362
2,C=C[C@]1(C)CC(O)C2C(=C)C(=O)OC2[C@H]1C(=C)C=O (some centres undefined),7.98
3,C#CCC(O)c1ccccc1C(O)CC#C (centres undefined),> 100
4,COc1nc(=O)cc(N)n1C1OC(CO)C(O)C1O (centres undefined),> 100
5,CC(C)Cn1cnc2c(Sc3c([N+](=O)[O-])ncn3C)nc(N)nc21,> 100

# Test system: MDA-MB-435
# Assay: NCI tumour cell line growth inhibition, 48 h
row,SMILES,TGI [µM]
1,CC(C)Cn1cnc2c(Sc3c([N+](=O)[O-])ncn3C)nc(N)nc21,> 100

# Test system: A549 NSCLC
# Assay: NCI tumour cell line growth inhibition, 48 h
row,SMILES,TGI
1,COc1cc2c(cc1OC)-c1cc(OC)c(OC)cc1[C@H]1CN3CCC[C@@]3(O)C=C21,0.106 µM and 0.414 µM
2,C=C[C@]1(C)CC(O)C2C(=C)C(=O)OC2[C@H]1C(=C)C=O (some centres undefined),43.6 µM
3,C#CCC(O)c1ccccc1C(O)CC#C (centres undefined),> 100 µM
4,COc1nc(=O)cc(N)n1C1OC(CO)C(O)C1O (centres undefined),> 100 µM
5,CC(C)Cn1cnc2c(Sc3c([N+](=O)[O-])ncn3C)nc(N)nc21,> 100 µM

# Test system: SR leukemia
# Assay: NCI tumour cell line growth inhibition, 48 h
row,SMILES,TGI [µM]
1,COc1cc2c(cc1OC)-c1cc(OC)c(OC)cc1[C@H]1CN3CCC[C@@]3(O)C=C21,< 0.0001
2,C=C[C@]1(C)CC(O)C2C(=C)C(=O)OC2[C@H]1C(=C)C=O (some centres undefined),20
3,CC(C)Cn1cnc2c(Sc3c([N+](=O)[O-])ncn3C)nc(N)nc21,> 100

# Test system: KM12 colon
# Assay: NCI tumour cell line growth inhibition, 48 h
row,SMILES,TGI
1,COc1cc2c(cc1OC)-c1cc(OC)c(OC)cc1[C@H]1CN3CCC[C@@]3(O)C=C21,0.00316 µM and 0.0152 µM
2,C=C[C@]1(C)CC(O)C2C(=C)C(=O)OC2[C@H]1C(=C)C=O (some centres undefined),12.5 µM
3,C#CCC(O)c1ccccc1C(O)CC#C (centres undefined),> 100 µM
4,COc1nc(=O)cc(N)n1C1OC(CO)C(O)C1O (centres undefined),> 100 µM
5,CC(C)Cn1cnc2c(Sc3c([N+](=O)[O-])ncn3C)nc(N)nc21,> 100 µM

# Test system: M14 melanoma
# Assay: NCI tumour cell line growth inhibition, 48 h
row,SMILES,TGI [µM]
1,COc1cc2c(cc1OC)-c1cc(OC)c(OC)cc1[C@H]1CN3CCC[C@@]3(O)C=C21,0.000105
2,C=C[C@]1(C)CC(O)C2C(=C)C(=O)OC2[C@H]1C(=C)C=O (some centres undefined),8.18
3,C#CCC(O)c1ccccc1C(O)CC#C (centres undefined),> 100
4,COc1nc(=O)cc(N)n1C1OC(CO)C(O)C1O (centres undefined),> 100
5,CC(C)Cn1cnc2c(Sc3c([N+](=O)[O-])ncn3C)nc(N)nc21,> 100

# Test system: UO-31 renal
# Assay: NCI tumour cell line growth inhibition, 48 h
row,SMILES,TGI [µM]
1,C=C[C@]1(C)CC(O)C2C(=C)C(=O)OC2[C@H]1C(=C)C=O (some centres undefined),13.7
2,C#CCC(O)c1ccccc1C(O)CC#C (centres undefined),> 100
3,COc1nc(=O)cc(N)n1C1OC(CO)C(O)C1O (centres undefined),> 100
4,CC(C)Cn1cnc2c(Sc3c([N+](=O)[O-])ncn3C)nc(N)nc21,> 75

# Test system: MDA-N
# Assay: NCI tumour cell line growth inhibition, 48 h
row,SMILES,TGI [µM]
1,C=C[C@]1(C)CC(O)C2C(=C)C(=O)OC2[C@H]1C(=C)C=O (some centres undefined),36.8

# Source: PubChem BioAssay (NCI)
